Data published in PubChem BioAssay AID1963841 (Molecular Pharmacology Branch, DTP, NCI, 2024).

Tested on: 439559-082-T-J2-PDC spheroid viability
Experiment: Anticancer human tumor 439559-082-T-J2-PDC patient-derived colon adenocarcinoma cell line growth inhibition [POLQ]
Conditions: spheroids with HUVEC and MSC; for IC50: curve of first compound; for viability, T/C: stronger effect = lower value
How it was run: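 Complex spheroid viability model combining PDC tumour cells with endothelial (HUVEC) and MSC stromal cells. Novobiocin, ART-558 or RP6685 were tested singly and in combination with standard and investigational anticancer drugs. Each was titrated in half-log steps from near clinical Cmax, or from 10 microM where Cmax was unknown.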

[1] = second compound 0.0316 µM, first compound 0.0316 µM
[2] = second compound 0.0316 µM, first compound 0.1 µM
[3] = second compound 0.0316 µM, first compound 0.316 µM
[4] = second compound 0.0316 µM, first compound 1 µM
[5] = second compound 0.0316 µM, first compound 3.16 µM
[6] = second compound 0.0316 µM, first compound 10 µM
[7] = second compound 0.1 µM, first compound 0.0316 µM
[8] = second compound 0.1 µM, first compound 0.1 µM
[9] = second compound 0.1 µM, first compound 0.316 µM
[10] = second compound 0.1 µM, first compound 1 µM
[11] = second compound 0.1 µM, first compound 3.16 µM
[12] = second compound 0.1 µM, first compound 10 µM
[13] = second compound 0.316 µM, first compound 0.0316 µM
[14] = second compound 0.316 µM, first compound 0.1 µM
[15] = second compound 0.316 µM, first compound 0.316 µM
[16] = second compound 0.316 µM, first compound 1 µM
[17] = second compound 0.316 µM, first compound 3.16 µM
[18] = second compound 0.316 µM, first compound 10 µM
[19] = second compound 1 µM, first compound 0.0316 µM
[20] = second compound 1 µM, first compound 0.1 µM
[21] = second compound 1 µM, first compound 0.316 µM
[22] = second compound 1 µM, first compound 1 µM
[23] = second compound 1 µM, first compound 3.16 µM
[24] = second compound 1 µM, first compound 10 µM
[25] = second compound 3.16 µM, first compound 0.0316 µM
[26] = second compound 3.16 µM, first compound 0.1 µM
[27] = second compound 3.16 µM, first compound 0.316 µM
[28] = second compound 3.16 µM, first compound 1 µM
[29] = second compound 3.16 µM, first compound 3.16 µM
[30] = second compound 3.16 µM, first compound 10 µM
[31] = second compound 10 µM, first compound 0.0316 µM
[32] = second compound 10 µM, first compound 0.1 µM
[33] = second compound 10 µM, first compound 0.316 µM
[34] = second compound 10 µM, first compound 1 µM
[35] = second compound 10 µM, first compound 3.16 µM
[36] = second compound 10 µM, first compound 10 µM
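Further: spheroids exposed to compounds for seven days before readout.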
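Wherever viability, T/C is given: 100% = DMSO vehicle control viability.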

## CCc1cc2c(N3CCc4c(cc(Cn5ccnc5)cc4-c4cn(C)nc4C(F)(F)F)C3=O)ccnc2c(OC)n1 + Cc1cccc(N(C)C(=O)C2C(O)CCN2c2nc(C)cc(C(F)(F)F)c2C#N)c1
Second compound 0.0316 µM
  IC50: > 10 µM
Second compound 0.1 µM
  IC50: > 10 µM
Second compound 0.316 µM
  IC50: > 10 µM
Second compound 1 µM
  IC50: > 10 µM
Second compound 3.16 µM
  IC50: > 10 µM
Second compound 10 µM
  IC50: > 10 µM
[1]
  viability, T/C: 98%
[2]
  viability, T/C: 95.5%
[3]
  viability, T/C: 101%
[4]
  viability, T/C: 97.1%
[5]
  viability, T/C: 93.1%
[6]
  viability, T/C: 87%
[7]
  viability, T/C: 126%
[8]
  viability, T/C: 96.4%
[9]
  viability, T/C: 90.6%
[10]
  viability, T/C: 92.5%
[11]
  viability, T/C: 95.2%
[12]
  viability, T/C: 89.4%
[13]
  viability, T/C: 105%
[14]
  viability, T/C: 109%
[15]
  viability, T/C: 102%
[16]
  viability, T/C: 98%
[17]
  viability, T/C: 98.8%
[18]
  viability, T/C: 83.7%
[19]
  viability, T/C: 101%
[20]
  viability, T/C: 104%
[21]
  viability, T/C: 85.1%
[22]
  viability, T/C: 93.7%
[23]
  viability, T/C: 93%
[24]
  viability, T/C: 90.2%
[25]
  viability, T/C: 115%
[26]
  viability, T/C: 106%
[27]
  viability, T/C: 83.3%
[28]
  viability, T/C: 92.2%
[29]
  viability, T/C: 103%
[30]
  viability, T/C: 96.1%
[31]
  viability, T/C: 94.9%
[32]
  viability, T/C: 87%
[33]
  viability, T/C: 99.5%
[34]
  viability, T/C: 89.3%
[35]
  viability, T/C: 91.7%
[36]
  viability, T/C: 77.3%

## COc1cc2cc(C(=O)CCC(=O)O)sc2cc1OC + Cc1cccc(N(C)C(=O)C2C(O)CCN2c2nc(C)cc(C(F)(F)F)c2C#N)c1
Second compound 0.0316 µM
  IC50: > 10 µM
Second compound 0.1 µM
  IC50: > 10 µM
Second compound 0.316 µM
  IC50: > 10 µM
Second compound 1 µM
  IC50: > 10 µM
Second compound 3.16 µM
  IC50: > 10 µM
Second compound 10 µM
  IC50: > 10 µM
[1]
  viability, T/C: 104%
[2]
  viability, T/C: 92.7%
[3]
  viability, T/C: 95.1%
[4]
  viability, T/C: 101%
[5]
  viability, T/C: 100%
[6]
  viability, T/C: 84.8%
[7]
  viability, T/C: 107%
[8]
  viability, T/C: 101%
[9]
  viability, T/C: 105%
[10]
  viability, T/C: 99%
[11]
  viability, T/C: 91.7%
[12]
  viability, T/C: 94.2%
[13]
  viability, T/C: 99.5%
[14]
  viability, T/C: 112%
[15]
  viability, T/C: 86.7%
[16]
  viability, T/C: 108%
[17]
  viability, T/C: 106%
[18]
  viability, T/C: 95.9%
[19]
  viability, T/C: 107%
[20]
  viability, T/C: 107%
[21]
  viability, T/C: 96.2%
[22]
  viability, T/C: 96.5%
[23]
  viability, T/C: 104%
[24]
  viability, T/C: 88.5%
[25]
  viability, T/C: 112%
[26]
  viability, T/C: 97.7%
[27]
  viability, T/C: 105%
[28]
  viability, T/C: 87.4%
[29]
  viability, T/C: 110%
[30]
  viability, T/C: 94.9%
[31]
  viability, T/C: 99%
[32]
  viability, T/C: 107%
[33]
  viability, T/C: 101%
[34]
  viability, T/C: 90.9%
[35]
  viability, T/C: 100%
[36]
  viability, T/C: 87.3%
